Values quoted from earlier work as cited in patent publication US11253533B1, “Water dissolvable macrocyclic lactone cyclodextrin complexes” (MOUNTAIN VALLEY MD INC, priority 2020, dated 2022).

## CC[C@H](C)[C@H]1O[C@]2(CC[C@@H]1C)C[C@@H]1C[C@@H](C/C=C(\C)[C@@H](O[C@H]3C[C@H](OC)[C@@H](O[C@H]4C[C@H](OC)[C@@H](O)[C@H](C)O4)[C@H](C)O3)[C@@H](C)/C=C/C=C3\CO[C@@H]4[C@H](O)C(C)=C[C@@H](C(=O)O1)[C@]34O)O2 [Ivermectin, (1R,4S,5'S,6R,6′R,8R,10E,12S,13S,14E,16E,20R,21R,24S)-6′-[(2S)-butan-2-yl]-21,24-dihydroxy-12-[(2R,4S,5S,6S)-5-[(2S,4S,5S,6S)-5-hydroxy-4-methoxy-6-methyloxan-2-yl]oxy-4-methoxy-6-methyloxan-2-yl]oxy-5′,11,13,22-tetramethylspiro[3,7,19-trioxatetracyclo[15.6.1.14,8.020,24]pentacosa-10,14,16,22-tetraene-6,2′-oxane]-2-one]
FR 3042412, without an organic solvent
  maximum concentration of ivermectin: 2 mg per millileter of water
U.S. Pat. No. 4,389,397, with organic solvents, no cyclodextrin
  solubility of Ivermectin: 7%
At 25 degrees Celsius
  solubility in water: about 0.005 mg per ml
